Data from paper PMC7004151, “Synthesis and Structure‐Activity Relationships of N‐(4‐Benzamidino)‐Oxazolidinones: Potent and Selective Inhibitors of Kallikrein‐Related Peptidase 6” (Chemmedchem, 2019).

Tests used:
Human trypsin = molecular target: T1, Human trypsin (Homo sapiens, UniProt P07477); experiment: Trypsin enzyme inhibition assay; assay type: biochemical; details: read-out: Trypsin pIC50 (converted)
T1 construct: purchased Polymun Scientific
Method: Human thrombin was purchased from Biopur. Human trypsin was purchased from Polymun Scientific. Human Factor Xa was purchased from Enzo Life Sciences. […] Fluorescence intensity was then read at ex/em 485/535 following incubation for 1 h at room temperature (thrombin and factor Xa) or 20 min (trypsin).

[1] = Hepatocytes intrinsic clearance; assay type: in vitro ADME
Method: Hepatocytes Intrinsic clearance (CLint) assay: Cryopreserved vials of mouse cryopreserved hepatocytes, supplied by Life Technologies, were thawed according to manufacturer's instructions and cells re‐suspended in Williams Medium E (WME) containing cell maintenance supplement pack (CM4000, Life Technologies). Hepatocytes were incubated in suspension (0.5x10^6 cells/mL) in 48 well non‐collagen coated cell culture plates for 10 min at 37 °C, 95 % O2 5 % CO2. Upon addition of an equal volume of supplemented WME containing 1 μM test compound, an aliquot of incubation solution was removed to acetonitrile containing internal standard (final concentration 0.5 μM test compound and a cell density of 0.25×10^6 cells/mL). Similarly, aliquots were removed at 3, 6, 9, 15, 30, 45, 60, 90 and 120 min. 100 μL of 80 : 20 H2O/MeCN was added to all samples and the analysis plate was centrifuged for 10 min at room temperature prior to injection and analysis of samples by UPLC‐MS/MS. The response (area ratio of test compound to internal standard) was plotted against time using an exponential decay model and rate of disappearance calculated. Hepatocyte CLint (mL/min/10^6 cells) was scaled to in vivo CLint (mL/min/g liver) using the hepatocellularity scaling factor of 120×10^6 cells/g of liver.

CC[C@H](NC(=O)[C@H]1CN(c2ccc(C(=N)N)cc2)C(=O)O1)c1cccc2ccccc12 [Compound 32, (5R)‐3‐(4‐carbamimidoylphenyl)‐N‐((S)‐1‐(naphthalen‐1‐yl)propyl)‐2‐oxooxazolidine‐5‐carboxamide]
IC50 (Human trypsin): 63.1 nM
Mouse Hep Cl [1]: 2.3 mL/min/g
